In ChEMBL document CHEMBL1145557, “Pyridine amides as potent and selective inhibitors of 11beta-hydroxysteroid dehydrogenase type 1” (Bioorg Med Chem Lett, 2008):

Assay: Inhibition of human 11-beta HSD in microsomes from HEK293 cells by SPA method

SMILES | IC50 [nM]
CC1CCN(C(=O)c2cccc(COc3c(Cl)cccc3Cl)n2)CC1 | 79
CC1CCN(C(=O)c2cccc(CSc3c(Cl)cccc3Cl)n2)CC1 | 7.2
O=C(c1cncc(CS(=O)(=O)c2c(Cl)cccc2Cl)c1)N1CCCCCC1 | 21
O=C(c1cncc(CS(=O)(=O)c2c(Cl)cccc2Cl)c1)N1CCCC1 | 2140
O=C(c1cccc(-c2ccc(C(F)(F)F)cc2)n1)N1CCCC2CCCCC21 (stereo unspecified) | 3.6
O=C(c1cccc(COc2c(Cl)cccc2Cl)n1)N1CCCC2CCCCC21 (stereo unspecified) | 4.6
CC1(C)C[C@H]2C[C@](C)(CN2C(=O)c2cncc(COc3c(Cl)cccc3Cl)c2)C1 | 1.7
CC1(C)CCCN(C(=O)c2cccc(-c3ccc(OC(F)(F)F)cc3)n2)C1 | 1.1
CC1CCN(C(=O)c2cccc(Oc3ccccc3Cl)n2)CC1 | 282
CC1CCN(C(=O)c2cccc(Nc3ccccc3Cl)n2)CC1 | 381
CC1CCN(C(=O)c2ccc(CSc3ccc(Cl)cc3)cc2)CC1 | 235
CC1CCN(C(=O)c2ccnc(CS(=O)(=O)c3c(Cl)cccc3Cl)c2)CC1 | 106
CC1CCN(C(=O)c2cc(CS(=O)(=O)c3c(Cl)cccc3Cl)ccn2)CC1 | 319
CC1(C)CCCN(C(=O)c2cccc(-c3ccccc3Cl)n2)C1 | 2.9
CC1CCN(C(=O)c2cncc(CS(=O)(=O)c3c(Cl)cccc3Cl)c2)CC1 | 22
CC1(C)CCCN(C(=O)c2cccc(COc3c(Cl)cc(Cl)cc3Cl)n2)C1 | 6.5

SMILES | IC50 [nM]
O=C(c1cccc(-c2ccccc2-c2ccccc2)n1)N1CCCC2CCCCC21 (stereo unspecified) | 4.7
O=C(c1cncc(COc2c(Cl)cccc2Cl)c1)N1CCCCC1c1cccnc1 (stereo unspecified) | 2
O=C(c1cccc(-c2ccccc2[N+](=O)[O-])n1)N1CCCC2CCCCC21 (stereo unspecified) | 2
CC1(C)CCCN(C(=O)c2cccc(-c3ccc(Cl)cc3)n2)C1 | 1.1
CC1CCN(C(=O)c2cccc(Sc3ccccc3Cl)n2)CC1 | 218
NC(=O)C1CCN(C(=O)c2cncc(CS(=O)(=O)c3c(Cl)cccc3Cl)c2)CC1 | 2350
O=C(c1cncc(CS(=O)(=O)c2c(Cl)cccc2Cl)c1)N1CCOCC1 | > 10000
Cc1ccc(-c2cccc(C(=O)N3CCCC(C)(C)C3)n2)cc1F | 0.1
O=C(c1cncc(CS(=O)(=O)c2c(Cl)cccc2Cl)c1)N1CCCCC1 | 220
CC1CCN(C(=O)c2ccc(CS(=O)(=O)c3c(Cl)cccc3Cl)cn2)CC1 | 2130
CC1CCN(C(=O)c2cccc(CS(=O)(=O)c3c(Cl)cccc3Cl)c2)CC1 | 13
O=C(c1cncc(CS(=O)(=O)c2c(Cl)cccc2Cl)c1)N1CCCCCCC1 | 11
O=C(c1cncc(CS(=O)(=O)c2c(Cl)cccc2Cl)c1)N1CCCCCCCC1 | 2.5
CC1CCN(C(=O)c2ccc(CS(=O)(=O)c3c(Cl)cccc3Cl)nc2)CC1 | 2050
CC1CCN(C(=O)c2cccc(S(=O)(=O)c3ccccc3Cl)n2)CC1 | 4670
